What was measured:
[1] = molecular target: T1, BTK enzyme (recombinant full-length BTK, hBTK) (Homo sapiens, UniProt Q06187); experiment: Btk enzyme activity assay (LANCE TR-FRET); type: biochemical; settings: 50 pM hBTK, 25 μM ATP, 60 minute compound and enzyme incubation, concentration range 1 μM to 0.017 nM, read-out: BTK binding IC50
T1 construct: recombinant protein from baculovirus-transfected S 19 cells: full-length BTK, 6 HIS-tag cleaved; 6 HIS-tag (cleaved yes); made in house

[2] = system: adenosine uptake into HeLa cells; experiment: [3H]Adenosine uptake assay; type: cell-based; settings: Homo sapiens; accumulation of [3H]adenosine into HeLa cells; concentration range 10 μM to 0.032 nM; read-out: ADU inhibition IC50
Procedure: Compounds are also screened in an adenosine uptake functional cellular assay using the protocol described below:
Adenosine uptake activity was determined by monitoring the accumulation of tritiated adenosine into HeLa cells (ATCC catalog #CCL-2) using a PMT-based radiometric detection instrument. In this assay, the potency (IC50) of each compound was determined from a ten point (1:3 serial dilution; final compound concentration range in assay from 10 μM to 0.032 nM) titration curve using the following outlined procedure. To each well of a 96-well CytoStar-T scintillating microplate (Perkin Elmer Catalog #RPNQ0163), 25 000 HeLa cells in 100 μL of growth medium comprising: Minimum Essential Media (Life Technologies Catalog #11095-080)+10% (v/v) foetal bovine serum (FBS; Sigma Aldrich Catalog #F2442) was added. These cells were incubated overnight at 37° C. in a humidified atmosphere with 5% (v/v) CO2. After this time the growth medium was removed and replaced with 40 μL assay medium comprising: Hanks balanced salts solution (HBSS; Thermo Fisher Catalog # SH30268.01)+5% (v/v) FBS. Compound stock solutions in DMSO were diluted in assay medium to 2.5× final compound concentration maintaining a constant DMSO concentration of 0.25% (v/v). 40 μL of compound in assay medium was dispensed into individual wells of the Cytostar-T plates and the plates were incubated for 30 minutes under ambient laboratory conditions. Following this incubation, 20 μL of 500 nM [^3H] adenosine (American Radiolabeled Chemicals Inc. Catalog #ART0287) in assay medium was added and incubated for a further 60 minutes under ambient laboratory conditions. The amount of radiolabel accumulation was then determined using a Perkin Elmer Topcount NXT microplate reader. In brief, HeLa cells adhere to the bottom of the Cytostar-T plate, uptake of [^3H]adenosine into these cells brings the radiolabel into sufficient proximity to excite the scintillant in the base of the plates. These events are captured by single PMT, time-resolved coincidence counting. IC50 values were determined by 4 parameter robust fit of counts per second values vs. (Log10)) compound concentrations.

T1 sequence (Q06187 whole entry): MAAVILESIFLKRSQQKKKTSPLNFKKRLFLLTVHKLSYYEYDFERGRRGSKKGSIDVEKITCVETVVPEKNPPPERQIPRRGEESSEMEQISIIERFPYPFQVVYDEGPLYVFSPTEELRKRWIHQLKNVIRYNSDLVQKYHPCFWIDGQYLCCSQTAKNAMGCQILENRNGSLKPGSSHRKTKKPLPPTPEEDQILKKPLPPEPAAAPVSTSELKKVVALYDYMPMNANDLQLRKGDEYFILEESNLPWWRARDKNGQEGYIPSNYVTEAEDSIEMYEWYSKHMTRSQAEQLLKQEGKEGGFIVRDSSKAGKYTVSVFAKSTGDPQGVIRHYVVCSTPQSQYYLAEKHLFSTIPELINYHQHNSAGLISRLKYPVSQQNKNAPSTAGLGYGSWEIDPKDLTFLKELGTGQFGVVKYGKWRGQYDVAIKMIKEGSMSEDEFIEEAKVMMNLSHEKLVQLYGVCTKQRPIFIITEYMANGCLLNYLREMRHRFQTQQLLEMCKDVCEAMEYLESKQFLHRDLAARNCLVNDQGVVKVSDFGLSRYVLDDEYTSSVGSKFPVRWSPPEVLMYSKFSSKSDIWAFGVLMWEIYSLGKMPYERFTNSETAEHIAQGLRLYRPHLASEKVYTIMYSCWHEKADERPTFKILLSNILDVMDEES

| SMILES | IC50 [1] [nM] | IC50 [2] [nM] |
| --- | --- | --- |
| COc1cc(C(=O)Nc2cc(C(F)(F)F)ccn2)ccc1-c1nc([C@H]2CN(C3COC3)[C@@H](C)CO2)n2ccnc(N)c12 [Example 55, 4-{8-amino-3-[(2R,5S)-5-methyl-4-oxetan-3-ylmorpholin-2-yl]imidazo[1,5-a]pyrazin-1-yl}-3-methoxy-N-[4-(trifluoromethyl)pyridin-2-yl]benzamide] | 2.54 | 2060 |
| CCOc1cc(C(=O)Nc2cc(C(F)(F)F)ccn2)cc(F)c1-c1nc([C@H]2CN(C(=O)[C@H](C)O)[C@@H](C)CO2)n2c(Cl)cnc(N)c12 [Example 101, 4-(8-amino-5-chloro-3-{(2R,5S)-4-[(2S)-2-hydroxypropanoyl]-5-methylmorpholin-2-yl}imidazo[1,5-a]pyrazin-1-yl)-3-ethoxy-5-fluoro-N-[4-(trifluoromethyl)pyridin-2-yl]benzamide] | 0.665 | 2720 |
| CCOc1cc(C(=O)Nc2cc(C(F)(F)F)ccn2)ccc1-c1nc([C@H]2CN(C(=O)[C@H](C)O)[C@@H](C)CO2)n2c(CC)cnc(N)c12 [Example 99, 4-(8-amino-5-ethyl-3-{(2R,5S)-4-[(2S)-2-hydroxypropanoyl]-5-methylmorpholin-2-yl}imidazo[1,5-a]pyrazin-1-yl)-3-ethoxy-N-[4-(trifluoromethyl)pyridin-2-yl]benzamide] | 0.788 | 1990 |
| CCC(=O)N1C[C@H](c2nc(-c3ccc(C(=O)Nc4cc(C(F)(F)F)ccn4)cc3OC)c3c(N)ncc(Cl)n23)OC[C@@H]1C [Example 16, 4-{8-amino-5-chloro-3-[(2R,5S)-5-methyl-4-propanoylmorpholin-2-yl]imidazo[1,5-a]pyrazin-1-yl}-3-methoxy-N-[4-(trifluoromethyl)pyridin-2-yl]benzamide] | 1.25 | 2790 |
| CCOc1cc(C(=O)Nc2cc(C(F)(F)F)n(C)n2)ccc1-c1nc([C@@H]2CC[C@H](C)N(C(=O)[C@@H](C)O)C2)n2ccnc(N)c12 [Example 109, 4-(8-amino-3-{(3R,6S)-1-[(2R)-2-hydroxypropanoyl]-6-methylpiperidin-3-yl}imidazo[1,5-a]pyrazin-1-yl)-3-ethoxy-N-[1-methyl-5-(trifluoromethyl)-1H-pyrazol-3-yl]benzamide] | 0.403 | 3340 |
| C[C@H]1CO[C@@H](c2nc(-c3ccc(C(=O)Nc4cc(C(F)(F)F)ccn4)cc3F)c3c(N)nccn23)CN1C1CCOCC1 [Example 75, 4-{8-amino-3-[(2R,5S)-5-methyl-4-(tetrahydro-2H-pyran-4-yl)morpholin-2-yl]imidazo[1,5-a]pyrazin-1-yl}-3-fluoro-N-[4-(trifluoromethyl)pyridin-2-yl]benzamide] | 0.329 | 350 |
| CCOc1cc(C(=O)Nc2cc(C(F)(F)F)ccn2)ccc1-c1nc([C@H]2CN(CC)[C@@H](C)CO2)n2c(Cl)cnc(N)c12 [Example 24, 4-{8-amino-5-chloro-3-[(2R,5S)-4-ethyl-5-methylmorpholin-2-yl]imidazo[1,5-a]pyrazin-1-yl}-3-ethoxy-N-[4-(trifluoromethyl)pyridin-2-yl]benzamide] | 1.54 | 2350 |
| CCOc1cc(C(=O)Nc2cc(C(F)(F)F)ccn2)ccc1-c1nc([C@H]2CN(C(=O)[C@H](C)O)[C@@H](C)CO2)n2c(F)cnc(N)c12 [Example 106, 4-(8-amino-5-fluoro-3-{(2R,5S)-4-[(2S)-2-hydroxypropanoyl]-5-methylmorpholin-2-yl}imidazo[1,5-a]pyrazin-1-yl)-3-ethoxy-N-[4-(trifluoromethyl)pyridin-2-yl]benzamide] | 4.31 | 6250 |
| CCOc1cc(C(=O)Nc2cc(C(F)(F)F)ccn2)ccc1-c1nc([C@H]2CN(Cc3cnn(C)c3)[C@@H](C)CO2)n2c(Cl)cnc(N)c12 [Example 23, 4-(8-amino-5-chloro-3-{(2R,5S)-5-methyl-4-[(1-methyl-1H-pyrazol-4-yl)methyl]morpholin-2-yl}imidazo[1,5-a]pyrazin-1-yl)-3-ethoxy-N-[4-(trifluoromethyl)pyridin-2-yl]benzamide] | 3.02 | 1200 |
| COCCC(=O)N1C[C@H](c2nc(-c3ccc(C(=O)Nc4cc(C(F)(F)F)ccn4)cc3OC)c3c(N)nccn23)OC[C@@H]1C [Example 50, 4-{8-amino-3-[(2R,5S)-4-(3-methoxypropanoyl)-5-methylmorpholin-2-yl]imidazo[1,5-a]pyrazin-1-yl}-3-methoxy-N-[4-(trifluoromethyl)pyridin-2-yl]benzamide] | 2.17 | 2260 |
| CNC(=O)N1C[C@H](c2nc(-c3ccc(C(=O)Nc4cc(C(F)(F)F)ccn4)c(F)c3)c3c(N)nccn23)CC[C@@H]1C [Example 94, (2S,5R)-5-[8-amino-1-(3-fluoro-4-{[4-(trifluoromethyl)pyridin-2-yl]carbamoyl}phenyl)imidazo[1,5-a]pyrazin-3-yl]-N,2-dimethylpiperidine-1-carboxamide] | 0.374 | – |
| C[C@H]1CO[C@@H](c2nc(-c3ccc(C(=O)Nc4cc(C(F)(F)F)ccn4)cc3F)c3c(N)ncc(Cl)n23)CN1C(=O)C1CC1 [Example 41, 4-{8-amino-5-chloro-3-[(2R,5S)-4-(cyclopropylcarbonyl)-5-methylmorpholin-2-yl]imidazo[1,5-a]pyrazin-1-yl}-3-fluoro-N-[4-(trifluoromethyl)pyridin-2-yl]benzamide] | 0.626 | 383 |
| C[C@H]1CC[C@@H](c2nc(-c3ccc(C(=O)Nc4cc(C(F)F)ccn4)cc3)c3c(N)nccn23)CN1C(=O)N(C)C [Example 92, (2S,5R)-5-[8-amino-1-(4-{[4-(difluoromethyl)pyridin-2-yl]carbamoyl}phenyl)imidazo[1,5-a]pyrazin-3-yl]-N,N,2-trimethylpiperidine-1-carboxamide] | 0.215 | 22.4 |
| Nc1nccn2c([C@H]3CN[C@H](CO)CO3)nc(-c3ccc(C(=O)Nc4cc(C(F)(F)F)ccn4)cc3F)c12 [Example 67, 4-{8-amino-3-[(2R,5R)-5-(hydroxymethyl)morpholin-2-yl]imidazo[1,5-a]pyrazin-1-yl}-3-fluoro-N-[4-(trifluoromethyl)pyridin-2-yl]benzamide] | 1.97 | 129 |
| CCOc1cc(C(=O)Nc2cc(C(F)(F)F)ccn2)ccc1-c1nc([C@H]2CC[C@H](C(F)(F)F)N(C(=O)C3CC3)C2)n2ccnc(N)c12 [Example 2, 4-{8-amino-3-[(3S,6R)-1-(cyclopropylcarbonyl)-6-(trifluoromethyl)piperidin-3-yl]imidazo[1,5-a]pyrazin-1-yl}-3-ethoxy-N-[4-(trifluoromethyl)pyridin-2-yl]benzamide] | 1.38 | 918 |
| C[C@H](O)C(=O)N1C[C@H](c2nc(-c3ccc(C(=O)Nc4cc(C(F)(F)F)ccn4)cc3F)c3c(N)nccn23)OC[C@H]1CO [Example 59, 4-(8-amino-3-{(2R,5R)-5-(hydroxymethyl)-4-[(2S)-2-hydroxypropanoyl]morpholin-2-yl}imidazo[1,5-a]pyrazin-1-yl)-3-fluoro-N-[4-(trifluoromethyl)pyridin-2-yl]benzamide] | 12.2 | – |
| C[C@H]1CO[C@@H](c2nc(-c3ccc(C(=O)Nc4cc(C(F)(F)F)ccn4)cc3F)c3c(N)nccn23)CN1C(=O)C1CC1 [Example 86, 4-{8-amino-3-[(2R,5S)-4-(cyclopropylcarbonyl)-5-methylmorpholin-2-yl]imidazo[1,5-a]pyrazin-1-yl}-3-fluoro-N-[4-(trifluoromethyl)pyridin-2-yl]benzamide] | – | 246 |
| CS(=O)(=O)CC(=O)N1C[C@H](c2nc(-c3ccc(C(=O)Nc4cc(C(F)(F)F)ccn4)cc3F)c3c(N)nccn23)OC[C@H]1CO [Example 58, 4-(8-amino-3-{(2R,5R)-5-(hydroxymethyl)-4-[(methylsulfonyl)acetyl]morpholin-2-yl}imidazo[1,5-a]pyrazin-1-yl)-3-fluoro-N-[4-(trifluoromethyl)pyridin-2-yl]benzamide] | 6.92 | – |
| COCC(=O)N1C[C@H](c2nc(-c3ccc(C(=O)Nc4cc(C(F)(F)F)ccn4)cc3F)c3c(N)nccn23)OC[C@H]1CO [Example 56, 4-{8-amino-3-[(2R,5R)-5-(hydroxymethyl)-4-(methoxyacetyl)morpholin-2-yl]imidazo[1,5-a]pyrazin-1-yl}-3-fluoro-N-[4-(trifluoromethyl)pyridin-2-yl]benzamide] | 8.81 | – |

— US20170349593A1, “BTK INHIBITORS” (MERCK SHARP & DOHME CORP., priority 2014, published 2017)
